Measured values published in US6482603B1, “Method of detecting drug-receptor and protein-protein interactions” (Yale University, priority 1998, dated 2002).

Assays:
[1] = test system: yeast expressing the Sec-1 G protein gamma subunit fusion and syntaxin; assay: growth inhibition assay (halo assay); assay type: cell-based, Saccharomyces cerevisiae; details: filter disks containing 5 or 15 μg of α-factor; strain MHY6; documented after 2 days at 30° C.
Protocol: (§1) Standard methods for the growth, maintenance, and transformation of yeast and bacteria, and for the manipulation of DNA, were used throughout (Ausubel et al. 1987, Current Protocols in Molecular Biology. Wiley-Interscience, New York). The Escherichia coli strain DH5α was used for the maintenance of plasmids. Yeast cells were grown in synthetic medium supplemented with amino acids, adenine and 2% glucose (SCD) or 2% galactose plus 0.2% sucrose (SCG); tryptophan and/or uracil were omitted to maintain selection for plasmids. The Saccharomyces cerevisiae strain used in this study was MHY6 (from Jeremy Thomer) (MATa ura3-52 lys2-801^am ade2-101^oc trp1-Δ63 his3-Δ200 leu2-Δ1 ste18Δ::LEU2) (derived from Sikorski et al. (1989) Genetics 122(1):19-27).
(§2) To evaluate to the interactions of the Sec-1 G protein gamma subunit fusion and syntaxin, a growth inhibition assay (halo assay) was carried out by diluting 50 μL from an overnight culture grown at 30° C. in selective media with 2 mL sterile water, followed by the addition of an equal volume of 1% (w/v) dissolved agar (55° C.) and poured onto a culture dish of SCD-Trp-Ura or SCG-Trp-Ura medium. Sterile filter discs were spotted with 5 μg or 15 μg of synthetic α-factor pheromone and placed onto the nascent lawn to induce growth arrest. The resulting zone of growth-arrested cells was documented after 2 days at 30° C. […]

[2] = test system: control cells which express the Sec-1 G protein gamma fusion alone and cells which express syntaxin alone; assay: growth inhibition assay (halo assay), control cells; assay type: cell-based, Saccharomyces cerevisiae; details: upon pheromone addition, filter disks with 5 or 15 μg, 2 days at 30° C.
Protocol: as §1, §2

α-factor
α-factor induced growth arrest (zone of inhibition around filter paper disks) [1]: no zone of inhibition | pheromone induced growth arrest [2]: growth arrest
